Literature values in paper PMC9034292 (The Journal of Biological Chemistry, 2022).

Legend:
[1] = system: HIV-1 RT–associated RNase H
[2] = one divalent cation-coordinating ion

Inhibition of HIV RNase H [1] | Manner of inhibition of HIV-1 RT–associated RNase H [1] | Inhibition of HBV RNase H (HBV RNase H) | Kd [2] [µM] | logK (stability constant) [2] | Molecule
inhibits | reversible noncompetitive | inhibits |  |  | CC(C)c1ccc(O)c(=O)c(O)c1 [β-thujaplicinol]
 |  |  | 150 | 3.82 | dihydroxytropylium ion
